Assay results published in paper PMC12881674, “Activation of TRPV3 channels in bladder cancer cells stimulates ATP release” (Molecular Pharmacology, 2025).

Target: T1, TRPV3 in KU-19-19 cells (Homo sapiens, UniProt Q8NET8)
T1 construct: host or cells: KU-19-19
T1 sequence (Q8NET8 1-790): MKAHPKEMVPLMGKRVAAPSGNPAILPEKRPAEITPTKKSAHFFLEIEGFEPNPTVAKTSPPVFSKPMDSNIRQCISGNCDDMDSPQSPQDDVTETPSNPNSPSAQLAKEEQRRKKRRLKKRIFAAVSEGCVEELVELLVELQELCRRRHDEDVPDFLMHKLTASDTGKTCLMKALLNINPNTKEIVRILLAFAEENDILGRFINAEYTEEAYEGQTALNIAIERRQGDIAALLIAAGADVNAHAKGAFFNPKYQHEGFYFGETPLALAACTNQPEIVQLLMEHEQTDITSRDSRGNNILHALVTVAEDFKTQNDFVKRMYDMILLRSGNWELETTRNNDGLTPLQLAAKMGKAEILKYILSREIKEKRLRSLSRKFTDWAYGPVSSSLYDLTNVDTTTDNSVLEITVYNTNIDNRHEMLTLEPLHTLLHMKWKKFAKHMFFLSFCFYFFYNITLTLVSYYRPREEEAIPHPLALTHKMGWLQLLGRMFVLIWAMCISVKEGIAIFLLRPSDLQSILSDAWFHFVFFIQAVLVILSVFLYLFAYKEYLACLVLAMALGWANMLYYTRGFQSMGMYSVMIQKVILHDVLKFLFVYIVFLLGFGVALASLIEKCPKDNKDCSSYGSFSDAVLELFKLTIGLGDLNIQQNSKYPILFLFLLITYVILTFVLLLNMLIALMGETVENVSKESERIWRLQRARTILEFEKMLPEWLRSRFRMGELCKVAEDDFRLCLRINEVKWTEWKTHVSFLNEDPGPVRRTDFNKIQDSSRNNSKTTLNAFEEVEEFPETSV
Experiment: whole-cell patch-clamp recordings in KU-19-19 cells
Format: cell-based
Description: Supplementation of the cellular cholesterol content in KU-19-19 cells was performed by adding cholesterol-loaded methyl-β-cyclodextrin (MβCD) to the cells. Cholesterol was dissolved in ethanol (20 mg/mL) by heating at 65 °C for 15 minutes. The cholesterol solution was then added dropwise to a 250 mM MβCD solution prepared in phosphate-buffered solution (PBS; Sigma Aldrich) at a 1:4 (v/v) ratio, yielding a stock containing 200 mM MβCD-cholesterol. KU-19-19 cells were incubated for 15 minutes at 37 °C in HBS containing 2.5 mM MβCD-cholesterol. As a control, KU-19-19 cells were incubated in HBS without MβCD-cholesterol supplement under the same conditions. […]
Fig. 3 TRPV3 is functionally expressed in bladder cancer cells. (A–D) Activation of TRPV3 in KU-19-19 (A, B) and CAL-29 (C, D) bladder cancer cells by AV3-1, assessed by fura-2-based Ca^2+ assays. […] (B, D) Quantification of peak [Ca^2+]ᵢ responses from KU-19-19 (B) and CAL-29 (D) cells under the indicated treatment conditions. Statistical significance was determined using one-way ANOVA with Tukey post hoc analysis; ∗P < .05. […] Current amplitudes were recorded using voltage ramps from −100 mV to +100 mV (500-millisecond duration) such as in F and expressed as current density (pA/pF) measured at +100 mV and −100 mV. […] Statistical significance was determined using Kruskal-Wallis ANOVA followed by Conover test; ∗P < .05. […]

`COC(=O)C12CN(Cc3ccccc3)CC1(C(=O)OC)CN(Cc1ccccc1)C2` (centres unmarked) [AV3-1] was tested, and the “currents under cholesterol-loaded conditions compared with untreated cells” value (50 μM AV3-1, KU-19-19 cells preincubated with 2.5 mM MβCD-cholesterol) was “substantially larger currents” and the “TRPV3 currents in KU-19-19 cells” value (50 μM AV3-1, repeated applications) was “robustly and reproducibly activated TRPV3 currents”.
